# Results: US10254290B2, “Systems and methods for identifying protein stabilizers” (The University of Kansas, priority 2012, dated 2019)
# What was measured:
# [1] = target: T1, dihydrofolate reductase (DHFR) (Homo sapiens, UniProt P00374); assay: Control experiment: biotinylated GroEL chaperonin on a BLI substrate dipped into a DHFR solution; assay type: binding
# T1 sequence (P00374 1-187): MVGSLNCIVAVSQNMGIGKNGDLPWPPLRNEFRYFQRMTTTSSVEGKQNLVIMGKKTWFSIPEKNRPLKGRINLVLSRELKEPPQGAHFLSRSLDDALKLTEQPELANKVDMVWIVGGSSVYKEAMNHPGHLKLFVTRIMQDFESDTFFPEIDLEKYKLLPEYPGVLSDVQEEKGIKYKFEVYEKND
# Source text: The chaperonin can bind particular target proteins as they transiently expose hydrophobic surfaces from their partially folded forms. The partitioning kinetics can be followed using the BLI high throughput system (Fortebio Octet™) or SPR or other suitable technology. With BLI as an example, the chaperonin can be attached to the BLI tip substrate to dip into a target protein solution. Alternatively, the capture protein and/or target protein can be attached to the BLI tip substrate to dip into a chaperonin solution. The chaperonin will bind with transitioned target proteins (e.g., second conformation), but has no or low binding with folded target proteins (e.g., first conformation). […] Potential protein stabilizers can be screened to see which ones inhibit the chaperonin from binding to the target protein by the stabilizer retaining the protein in the first conformation. In the presence of a potential protein stabilizer, the partitioning kinetic amplitudes show significant declines (e.g., inhibition of partitioning) or even abolish global partitioning, which is scored as a potential lead compound. Once identified, potential protein stabilizer compounds can be further tested with target proteins in secondary screens. […]
# CFTR-NBD1 = CFTR-NBD1 (Homo sapiens, UniProt P13569); assay: GroEL binding to CFTR-NBD1 bound directly to the substrate; conditions: CFTR-NBD1 introduced to GTP prior to GroEL
# Sequence of CFTR-NBD1 (P13569 423-646 limits assumed): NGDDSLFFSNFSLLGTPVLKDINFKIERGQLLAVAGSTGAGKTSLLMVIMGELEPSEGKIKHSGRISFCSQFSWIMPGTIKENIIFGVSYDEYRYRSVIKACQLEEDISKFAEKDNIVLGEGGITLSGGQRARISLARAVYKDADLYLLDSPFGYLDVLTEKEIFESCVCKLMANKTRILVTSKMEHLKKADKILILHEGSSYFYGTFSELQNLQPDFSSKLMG
# Source text: Additionally, the CFTR nucleotide binding domain (e.g., CFTR-NBD1) may be bound directly to the substrate, which is then introduced to a GroEL buffer. […] When the CFTR-NBD1 is not introduced to GTP prior to being introduced to GroEL, there is a much higher single. Other substances besides GTP can also be screen to identify inhibitors of forming the CFTR-NBD1/GroEL complex.
# GroEL chaperonin = GroEL chaperonin (Escherichia coli, UniProt P0A6F5); assay: Binding of the substance to the chaperonin itself
# Sequence of GroEL chaperonin (P0A6F5 2-548): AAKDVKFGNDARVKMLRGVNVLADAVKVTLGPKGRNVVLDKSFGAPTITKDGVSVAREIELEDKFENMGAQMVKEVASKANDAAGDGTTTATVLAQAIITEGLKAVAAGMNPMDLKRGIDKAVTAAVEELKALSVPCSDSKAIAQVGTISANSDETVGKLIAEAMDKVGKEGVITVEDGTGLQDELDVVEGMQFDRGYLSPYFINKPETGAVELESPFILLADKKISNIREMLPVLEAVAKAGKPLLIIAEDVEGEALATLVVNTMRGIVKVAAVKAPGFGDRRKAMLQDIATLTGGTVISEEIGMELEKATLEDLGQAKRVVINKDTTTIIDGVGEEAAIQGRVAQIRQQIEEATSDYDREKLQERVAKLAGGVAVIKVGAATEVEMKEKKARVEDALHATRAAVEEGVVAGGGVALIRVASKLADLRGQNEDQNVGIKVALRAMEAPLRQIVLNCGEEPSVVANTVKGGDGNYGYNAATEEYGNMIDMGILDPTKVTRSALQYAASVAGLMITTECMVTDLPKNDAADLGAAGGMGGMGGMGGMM
# CFTR = CFTR (Homo sapiens, UniProt P13569); assay: BLI chaperonin (GroEL) binding to antibody-captured CFTR, with or without stabilizer (scheme of FIG. 9); conditions: compared with chaperonin alone and buffer signal
# Sequence of CFTR (P13569 whole entry, species assumed): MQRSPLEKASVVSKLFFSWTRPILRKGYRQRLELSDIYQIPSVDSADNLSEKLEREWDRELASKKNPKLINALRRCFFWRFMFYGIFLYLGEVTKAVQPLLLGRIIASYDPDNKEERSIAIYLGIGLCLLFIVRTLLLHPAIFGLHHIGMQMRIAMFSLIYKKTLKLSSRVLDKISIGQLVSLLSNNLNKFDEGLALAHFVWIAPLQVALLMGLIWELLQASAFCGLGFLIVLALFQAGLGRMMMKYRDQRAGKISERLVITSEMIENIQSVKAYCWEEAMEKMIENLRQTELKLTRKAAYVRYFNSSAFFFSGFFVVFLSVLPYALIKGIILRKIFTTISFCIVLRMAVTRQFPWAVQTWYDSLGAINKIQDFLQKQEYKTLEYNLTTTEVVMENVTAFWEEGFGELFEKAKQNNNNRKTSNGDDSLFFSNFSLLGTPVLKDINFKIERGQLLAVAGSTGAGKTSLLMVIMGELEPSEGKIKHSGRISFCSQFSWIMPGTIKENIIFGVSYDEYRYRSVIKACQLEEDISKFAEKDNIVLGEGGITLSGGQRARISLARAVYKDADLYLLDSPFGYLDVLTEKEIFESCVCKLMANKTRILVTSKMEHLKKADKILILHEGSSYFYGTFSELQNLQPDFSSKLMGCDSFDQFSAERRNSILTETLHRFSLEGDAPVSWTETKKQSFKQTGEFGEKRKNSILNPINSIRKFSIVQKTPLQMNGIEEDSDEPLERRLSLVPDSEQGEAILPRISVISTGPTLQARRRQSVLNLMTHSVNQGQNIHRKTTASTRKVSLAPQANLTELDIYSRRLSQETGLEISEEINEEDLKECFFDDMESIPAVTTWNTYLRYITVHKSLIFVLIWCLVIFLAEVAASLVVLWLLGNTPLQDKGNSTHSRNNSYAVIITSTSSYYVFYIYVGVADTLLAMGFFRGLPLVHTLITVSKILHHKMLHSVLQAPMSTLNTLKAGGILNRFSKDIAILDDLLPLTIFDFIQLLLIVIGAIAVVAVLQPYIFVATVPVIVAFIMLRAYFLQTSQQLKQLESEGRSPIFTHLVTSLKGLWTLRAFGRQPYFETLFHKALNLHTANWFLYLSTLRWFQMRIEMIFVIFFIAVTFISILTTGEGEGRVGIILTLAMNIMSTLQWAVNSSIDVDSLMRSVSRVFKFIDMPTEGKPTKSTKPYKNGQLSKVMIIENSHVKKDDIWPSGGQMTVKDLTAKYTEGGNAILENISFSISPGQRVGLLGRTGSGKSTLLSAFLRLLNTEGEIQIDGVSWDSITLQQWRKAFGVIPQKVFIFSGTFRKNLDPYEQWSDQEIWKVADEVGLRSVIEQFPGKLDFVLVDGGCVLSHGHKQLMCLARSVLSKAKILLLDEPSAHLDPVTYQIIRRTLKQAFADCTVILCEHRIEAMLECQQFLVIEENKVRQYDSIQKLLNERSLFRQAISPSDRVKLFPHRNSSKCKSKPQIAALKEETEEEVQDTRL
# Source text: In one embodiment, a linker antibody (e.g., anti-mouse antibody) can be attached to the substrate, which is then introduced to a capture antibody (e.g., CFTR antibody), and which is then introduced to a target protein (e.g., cystic fibrosis transmembrane conductance regulator, CFTR). In some instances the capture antibody can be linked directly to the substrate or through a suitable linker. However, the linker antibody can position the capture antibody a suitable distance from the substrate by antibody extension. If no stabilizer is present, a chaperonin (e.g., GroEL) can bind with the target protein to provide a large signal.
# As shown, a substrate 202 has an anti-mouse antibody 906 bound thereto. Then, a CFTR antibody 908 is associated with the anti-mouse antibody 906. CFTR 910 is then introduce to and bound with the CFTR antibody 908 before a chaperonin 914 (e.g., GroEL) is introduced to the CFTR/CFTR antibody complex. […] When there is no stabilizer C, the chaperonin 514 binds with the CFTR/CFTR antibody complex to form complex 920 and to produce a large signal. When the stabilizer C is present, there is a decreased binding signal to indicate that the chaperonin cannot bind with the CFTR/CFTR antibody complex. […]
"signal of GroEL-DHFR interaction ([1]; BLI, NADPH e.g. 10 mM)","signal of GroEL-DHFR interaction, combination ([1]; combination of GroEL and DHFR and 10 mM NADPH)",SMILES,signal of GroEL binding to CFTR-NBD1 (CFTR-NBD1),binding to the GroEL chaperonin (GroEL chaperonin),chaperonin binding signal (stabilization of CFTR) (CFTR)
decrease the signal,further reduce the signal,NC(=O)C1=CN([C@@H]2O[C@H](COP(=O)(O)OP(=O)(O)OC[C@H]3O[C@@H](n4cnc5c(N)ncnc54)[C@H](OP(=O)(O)O)[C@@H]3O)[C@@H](O)[C@H]2O)C=CC1 [NADPH],–,–,–
–,–,"Nc1nc2c(ncn2[C@@H]2O[C@H](COP(=O)(O)OP(=O)(O)OP(=O)(O)O)[C@@H](O)[C@H]2O)c(=O)[nH]1 [GTP, guanosine triphosphate]",no signal or a low single,does not bind,decreased the chaperonin binding and decreased the signal
